In patent publication US10238761B1, “Method and an integrated device for an area decontamination process” (NANOMIST SYSTEMS, LLC, priority 2013, dated 2019):
Like-named read-outs stand apart in the source and are kept apart here.

Tested on: G. Stearothermophilus
Procedure: Tests were conducted in a 36 m^3 room without carpet (i.e., with tiled floor) and also in a 110 m^3 room with wall-to-wall carpet and configured to simulate a larger room with an attached bathroom with a door opening. Biological indicator (BI) test disks inoculated with 4-log, 5-log and 6-log populations of G. Stearothermophilus prepared by Mesa Labs were used.
BI test disks were placed at various locations within the room and doors and windows and other ventilation to the room was closed. Room temperature was not intentionally controlled, but was maintained at between about 22° C. and 26° C. The test area was pre-conditioned to a relative humidity of about 50%. A predetermined amount of biocide, a 35% hydrogen peroxide vapor, was rapidly injected into the room, with the rate of injection being about 50 g per minute or producing about 17.5 g of HP vapor per minute. The “inactivation time” or time from the initiation of the biocide injection through the residence time was a total of about 10 minutes. The room was then aerated until the concentration of biocide dropped to about 1 ppm. The overall cycle time was then calculated as the time for biocide injection, biocide contact or inactivation time, and the aeration time.

Measured: Kill Efficiency

OO [35% HP solution, hydrogen peroxide]
4-log: Test A: 36-m^3 room, tile, injected mass 0.6 g/m^3, HP mass 22 g, injection rate 11.4 g/min, injection time 1.8 min, residence time 8.2 min
6-log: Test 4: 36 m^3 room, injected mass 2.4 g/m^3, HP mass 86.4 g, injection time 8.3 min, injection rate 10.4 g/min (0.29 g/min/m3) of HP | Test 8: 36 m^3 room, injected mass 2 g/m^3, HP mass 72 g, injection time 6.5 min, injection rate 11.1 g/min (0.31 g/min/m3) of HP | Test 10: 36 m^3 room, injected mass 2 g/m^3, HP mass 73.1 g, injection time 6.5 min, injection rate 11.2 g/min (0.31 g/min/m3) of HP | Test 12: 36 m^3 room, injected mass 2.1 g/m^3, HP mass 74.9 g, injection time 4.3 min, injection rate 17.4 g/min (0.48 g/min/m3) of HP | Test C: 36-m^3 room, tile, injected mass 1.7 g/m^3, HP mass 59 g, injection rate 12.3 g/min, injection time 4.8 min, residence time 5.2 min | Test E: 100-m^3 room, carpet, second doorway with non-line-of-sight BI, injected mass 1.8 g/m^3, HP mass 201 g, injection rate 21.1 g/min, injection time 9.5 min, residence time 0.5 min
5-log: Test 3: 36 m^3 room, injected mass 2.4 g/m^3, HP mass 86.4 g, injection time 12.7 min, injection rate 6.8 g/min (0.19 g/min/m3) of HP | Test 7: 36 m^3 room, injected mass 2 g/m^3, HP mass 72 g, injection time 12 min, injection rate 6.0 g/min (0.17 g/min/m3) of HP | Test 9: 36 m^3 room, injected mass 2 g/m^3, HP mass 72.7 g, injection time 9.6 min, injection rate 7.6 g/min (0.21 g/min/m3) of HP | Test 11: 36 m^3 room, injected mass 2.2 g/m^3, HP mass 79.6 g, injection time 13 min, injection rate 6.1 g/min (0.17 g/min/m3) of HP | Test B: 36-m^3 room, tile, injected mass 0.7 g/m^3, HP mass 26 g, injection rate 11.0 g/min, injection time 2.4 min, residence time 7.6 min | Test D: 100-m^3 room, carpet, second doorway with non-line-of-sight BI, injected mass 0.8 g/m^3, HP mass 91 g, injection rate 13.0 g/min, injection time 7.0 min, residence time 3.0 min
